From patent publication US12667580B2, “Retinoic acid precursor and anticancer drug composition comprising same” (INDUSTRIAL COOPERATION FOUNDATION JEONBUK NATIONAL …, priority 2021, dated 2026)
One block for each compound: values may come before it.

Legend:
A549 cells = test: MTT cytotoxicity, A549; format: cell-based; conditions: 24 hours, RA (210 mM), HBA (220 mM)
Experimental: Next, to evaluate the cytotoxicity of tRABA, a 3-(4,5-dimethylthiazol-2-yl)-2,5-diphenyltetrazolium bromide (MTT)) analysis was performed. The cell survival rate was measured 24 hours after A549 cells were treated with RA, HBA, and tRABA, and the results are shown in FIG. 8C.

[1] = Reactivity of RABA in the presence of H2O2 (1H NMR after incubation); format: physicochemical
Experimental: To evaluate the reactivity of the prepared RABA in the presence of H2O2, ^1H NMR of the RABA was taken after incubation in a 5 mM H2O2 solution.
The peaks at 7.3 and 7.8 ppm corresponding to aromatic protons disappeared, and new peaks at 6.8 and 7.1 ppm appeared. The peaks corresponding to benzylic proton were shifted from 5.1 ppm to 5.0 ppm. On the other hand, there was no peak shift in the RABA incubated in water without H2O2.

[2] = Self-assembly of nanoparticles in water, particle size and SEM; format: physicochemical
Experimental: RABA dissolved in tetrahydrofuran (THF) was added to water while stirring. During dilution in water, strong light scattering occurred due to the Tyndall phenomenon. […] The mean hydrodynamic diameter was measured to be ˜120 nm.
It was confirmed that the nanoparticles existed in a spherical colloidal state. In addition, an experiment was performed to confirm self-assembly of Compound 2, which is produced during the preparation process of RA and RABA.

[3] = tested on: SW620 multicellular spheroids; test: Tumor penetration in multicellular spheroids; format: cell-based; conditions: 6 hours
Description: Next, SW620 multicellular spheroids were used to evaluate the tumor penetration of Nile Red-loaded tRABA nanoparticles. […] This means that tRABA penetrated much deeper into the spheroids than RABA. From this, it could be confirmed that tRABA has excellent tumor penetration.

GSH in A549 cells = test: Intracellular GSH levels; format: cell-based; set-up: dose or concentration left out as unconfirmed
Experimental: Therefore, an experiment was conducted to measure intracellular GSH levels in A549 cells treated with tRABA.

[4] = tested on: calreticulin (CRT) in A549 cells; test: CRT level by flow cytometry; format: cell-based
Experimental: Next, since immunogenic apoptosis enhances immunogenicity and anticancer effects by releasing damage-associated molecular pattern (DAMP) substances during the cell dying process, an experiment was performed to confirm whether tRABA nanoparticles induce immunogenic cell death to improve immunogenicity. First, the expression levels of DAMPs such as calreticulin (CRT) and high mobility group box 1 (HMGB1) were confirmed as endoplasmic reticulum (ER) stress markers.

[5] = tested on: HMGB1 released from A549 cells; test: HMGB-1 release; format: cell-based
Experimental: Next, since it is known that HMGB-1 is a nuclear protein that binds to DNA and is triggered by an apoptosis inducer and that in the late stage of apoptosis, cells are destroyed and HMGB-1 is released into the tumor microenvironment to induce dendritic cell maturation and antigen presentation, an experiment was performed to confirm the effect of tRABA nanoparticles on HMGB-1 release.

tumor model mice = test: Tumor growth inhibition in tumor model mice; format: in vivo, mouse; conditions: i.v. on Days 1, 4, 7, 10, 13; RA 3 mg/kg, HBA 1.5 mg/kg, tRABA 5 mg/kg
Experimental: Next, the anticancer effect was evaluated by administering a therapeutic drug in the tumor model mice when the tumor size reached 50 mm^3. A therapeutic drug was intravenously administered on Days 1, 4, 7, 10, and 13 to the tumor model mice.

Compound: CC1=C(/C=C/C(C)=C/C=C/C(C)=C/C(=O)O)C(C)(C)CCC1 [RA, Retinoic acid]
cell survival rate / cytotoxicity (MTT) (A549 cells): the cell survival rate decreased

stability in water (1H NMR peak shift) ([1]; incubated in water without H2O2): no peak shift
self-assembly into nanoparticles ([2]; THF solution added to water, SEM): the nanoparticles were being formed well
mean hydrodynamic diameter ([2]; nanoparticles in water): ~120 nm
Compound: CC1=C(/C=C/C(C)=C/C=C/C(C)=C/C(=O)OCc2ccc(B(O)O)cc2)C(C)(C)CCC1 [RABA]
reactivity in the presence of H2O2 (1H NMR peak shift) ([1]; incubation in a 5 mM H2O2 solution): a shift of the peak due to the release of HBA was observed
spheroid penetration (fluorescence) [3]: weak fluorescence

Compound: hydroxybenzyl alcohol [HBA]
intracellular GSH levels (GSH in A549 cells): no effect on the GSH levels
level of CRT [4]: almost no effect
level of HMGB-1 [5]: did not affect the level of HMGB-1
tumor growth inhibition (tumor model mice): negligible inhibitory effect on tumor growth
